Active and inactive are the calls of the source. How the calls were made is not given here.
System: CCRIS mutagenicity, Ames/micronucleus/aberration tests
Assay: CCRIS mutagenicity studies
Conditions: Test System: AMES SALMONELLA TYPHIMURIUM
[1] = Strain/Indicator: TA98, Metabolic Activation: NONE, Method: PREINCUBATION
[2] = Strain/Indicator: TA100, Metabolic Activation: NONE, Method: PREINCUBATION
[3] = Strain/Indicator: TA100, Metabolic Activation: NONE, Method: STANDARD PLATE

SMILES: O=[N+]([O-])c1ccc(N=N/C(=N\Nc2ccc(I)cc2)c2ccccc2)cc1
- mutagenic call (Strain/Indicator: TA97, Metabolic Activation: NONE, Method: SPOT TEST): inactive; negative
- mutagenic call (Strain/Indicator: TA97, Metabolic Activation: RAT, LIVER, S-9, PHENOBARBITAL, Method: SPOT TEST): inactive; negative
- mutagenic call [1]: inactive; negative
- mutagenic call (Strain/Indicator: TA98, Metabolic Activation: NONE, Method: SPOT TEST): inactive; negative
- mutagenic call (Strain/Indicator: TA98, Metabolic Activation: RAT, LIVER, S-9, PHENOBARBITAL, Method: PREINCUBATION): inactive; negative
- mutagenic call (Strain/Indicator: TA98, Metabolic Activation: RAT, LIVER, S-9, PHENOBARBITAL, Method: SPOT TEST): inactive; negative
- mutagenic call [2]: inactive; negative
- mutagenic call (Strain/Indicator: TA100, Metabolic Activation: NONE, Method: SPOT TEST): inactive; negative
- mutagenic call (Strain/Indicator: TA100, Metabolic Activation: RAT, LIVER, S-9, PHENOBARBITAL, Method: PREINCUBATION): inactive; negative
- mutagenic call (Strain/Indicator: TA100, Metabolic Activation: RAT, LIVER, S-9, PHENOBARBITAL, Method: SPOT TEST): inactive; negative
- mutagenic call (Strain/Indicator: TA102, Metabolic Activation: NONE, Method: SPOT TEST): inactive; negative
- mutagenic call (Strain/Indicator: TA102, Metabolic Activation: RAT, LIVER, S-9, PHENOBARBITAL, Method: SPOT TEST): inactive; negative

SMILES: CC(=O)ON(OCc1ccc(Cl)cc1)C(=O)c1ccccc1
- mutagenic call [3]: active; positive
- mutagenic call (Strain/Indicator: TA100, Metabolic Activation: RAT, S-9, AROCLOR, Method: STANDARD PLATE): active; positive

SMILES: O=C1c2c(O)ccc([N+](=O)[O-])c2C(=O)c2c([N+](=O)[O-])ccc(O)c21
- mutagenic call (Strain/Indicator: TA98, Metabolic Activation: HAMSTER, LIVER, S-9, AROCLOR 1254 (10%), Method: PREINCUBATION): active; positive
- mutagenic call [1]: active; positive
- mutagenic call (Strain/Indicator: TA98, Metabolic Activation: NONE, Method: STANDARD PLATE): active; positive
- mutagenic call (Strain/Indicator: TA98, Metabolic Activation: RAT, LIVER, S-9, AROCLOR 1254 (10%), Method: PREINCUBATION): active; positive
- mutagenic call (Strain/Indicator: TA98, Metabolic Activation: RAT, LIVER, S-9, AROCLOR 1254, Method: STANDARD PLATE): active; positive
- mutagenic call (Strain/Indicator: TA100, Metabolic Activation: HAMSTER, LIVER, S-9, AROCLOR 1254 (10%), Method: PREINCUBATION): active; positive
- mutagenic call [2]: active; positive
- mutagenic call [3]: active; positive
- mutagenic call (Strain/Indicator: TA100, Metabolic Activation: RAT, LIVER, S-9, AROCLOR 1254 (10%), Method: PREINCUBATION): active; positive
- mutagenic call (Strain/Indicator: TA100, Metabolic Activation: RAT, LIVER, S-9, AROCLOR 1254, Method: STANDARD PLATE): active; positive
- mutagenic call (Strain/Indicator: TA1535, Metabolic Activation: HAMSTER, LIVER, S-9, AROCLOR 1254 (10%), Method: PREINCUBATION): active; positive
- mutagenic call (Strain/Indicator: TA1535, Metabolic Activation: NONE, Method: PREINCUBATION): active; positive
- mutagenic call (Strain/Indicator: TA1535, Metabolic Activation: NONE, Method: STANDARD PLATE): inactive; negative
- mutagenic call (Strain/Indicator: TA1535, Metabolic Activation: RAT, LIVER, S-9, AROCLOR 1254 (10%), Method: PREINCUBATION): active; positive
- mutagenic call (Strain/Indicator: TA1537, Metabolic Activation: HAMSTER, LIVER, S-9, AROCLOR 1254 (10%), Method: PREINCUBATION): active; positive
- mutagenic call (Strain/Indicator: TA1537, Metabolic Activation: NONE, Method: PREINCUBATION): active; positive
- mutagenic call (Strain/Indicator: TA1537, Metabolic Activation: NONE, Method: STANDARD PLATE): active; positive
- mutagenic call (Strain/Indicator: TA1537, Metabolic Activation: RAT, LIVER, S-9, AROCLOR 1254 (10%), Method: PREINCUBATION): active; positive
- mutagenic call (Strain/Indicator: TA1537, Metabolic Activation: RAT, LIVER, S-9, AROCLOR 1254, Method: STANDARD PLATE): active; positive
- mutagenic call (Strain/Indicator: TA1538, Metabolic Activation: NONE, Method: STANDARD PLATE): active; positive
- mutagenic call (Strain/Indicator: TA1538, Metabolic Activation: RAT, LIVER, S-9, AROCLOR 1254, Method: STANDARD PLATE): active; positive
- mutagenic call (Strain/Indicator: TA1978, Metabolic Activation: NONE, Method: STANDARD PLATE): active; positive
- mutagenic call (Strain/Indicator: TA1978, Metabolic Activation: RAT, LIVER, S-9, AROCLOR 1254, Method: STANDARD PLATE): active; positive
